Experiments:
[1] = tested on: Ovalbumin Induced Respiratory Allergy; assay: Organ weight determination, ovalbumin induced respiratory allergy; type: in vivo, BALB/c mice; details: for organ weight (in words): compared OVA control, FIG. 10, Table 5; for Organ weight, Spleen / Organ weight, Lungs: mean, BCP 10 mg/kg, PEA 3 mg/kg, BPE 10 mg/kg, BPB 30 mg/kg oral 5 days; for Organ weight, Spleen: control 0.26, OVA 0.80; for Organ weight, Lungs: control 0.65, OVA 1.08
Source text: It is widely known that lungs and spleen weight increase during allergy.

[2] = tested on: Human epidermal keratinocyte cells (HaCaT); assay: Inhibition of intracellular calcium (H2O2 stimulated, Fluo-8AM); type: cell-based; details: samples pre-treated 2 hours, 10 mM H2O2 30 mins, FIG. 1A-1D, combination ratio 1:1:0.3
Procedure: Various environmental stimuli or neurotransmitters often cause changes in intracellular calcium concentration in the skin. Keratinocytes, primary cell type found in the outermost layer of the skin. Epidermal keratinocytes express functional sensory receptors, such as TRPV1, TRPV3, and TRPV4. Pain stimulus increases intracellular calcium through TRPV channels. Hydrogen peroxide mediated calcium stimulation was tested. Human epidermal keratinocyte cells (HaCaT) (5×10^4) were seeded in 96 black well plate for overnight. Samples were Pre-treated for 2 hours in 1% DMEM. Cells were stimulated with 10 mM H2O2 for 30 mins, and Fluo-8AM dye was added (HBBS buffer) for 1 hr. After incubation, cells were washed with PBS twice and the fluorescence was measured at the Ex/Em of 485/520 nm.

IL-6 = assay: Inhibition of IL-6 in LPS induced RAW 264.7 macrophages (ELISA); details: RAW 264.7, LPS 100 ng/mL; FIG. 3A-3D
Procedure: (§2) Mouse macrophage cell line (RAW264.7) was purchased from National Center for Cell Science (NCCS, Pune, India) and maintained as a monolayer culture in Dulbecco's modified minimal essential medium (DMEM, Life Technologies, CA, USA) supplemented with 10% (v/v) fetal bovine serum (FBS; GIBCO/Invitrogen, Carlsbad, CA) at 37° C. in a humidified 5% CO2 incubator.
RAW 264.7 (5×10^5 cells/well) macrophage cells were induced with LPS (100 ng/mL) along with or without different concentrations of Samples. The supernatants were used for IL6 estimation using ELISA kits as per the manufacturer's instruction (R&D Systems, Minneapolis, Minnesota, USA).

[3] = tested on: Cisplatin induced peripheral neuropathy animal models; assay: Tail-flick test, cisplatin induced peripheral neuropathy; type: in vivo, C57BL/6 mice; details: tail withdrawal latency; BCP 10 mg, PEA 5 mg, BPE 10 mg, BPB 15 mg, Ibuprofen 30 mg
Procedure: This is a test of acute nociception in which a high-intensity thermal stimulus is directed to the tail of a mouse or a rat. The time from onset of stimulation to a rapid flick/withdrawal of the tail from heat source is recorded. Thermal (radiant heat) sensation of animal tail part was assessed by observation of tail flick response as per D'Aemour and Smith method with minor modifications (Hargreaves et al. A new and sensitive method for measuring thermal nociception in cutaneous hyperalgesia. Pain 32 (1988) 77-88). The one-centimeter distance from the tail terminal region was located on the slit of the plantar device. Thermal sensitivity of mice tail was recorded as tail withdrawal latency. Brisk withdrawal of tail from the plantar device was considered as a progression of neuropathic pain. Cut-off stimuli, i.e., 15 s was maintained to avoid potential tissue damage. Mice were tested after 24 h of treatment injections for the drug-response evaluation.

Mouse mast cells P815 = assay: Inhibition of histamine release from C48/80 activated mast cells; type: cell-based; details: P815, 80 μg/ml C48/80, 30 min; FIG. 4A-4D
Procedure: Reaction was terminated by placing the cells on ice for 10 mins and centrifuged for 5 minutes at 2400 rpm. 100 μL of cell supernatant was mixed with 50 μL of 4N NaOH and 10 μL of O-Phthaldialdehyde (OPT, 1 mg·mL-1 in methanol, Sigma). By incubation at room temperature for 10 min, 50 μL of 1N HCl was added to stop the reaction. The fluorescence was measured at Ex/Em of 390/460 nm using a microplate reader (FLOUSTAR).

[4] = tested on: Ovalbumin Induced Respiratory Allergy; assay: Bronchoalveolar lavage fluid (BALF) cell count, ovalbumin induced respiratory allergy; details: BCP 10, PEA 3, BPE 10, BPB 30 mg/kg; for Differential Count, PMN - E / Differential Count, PMN - N / Differential Count, Lymphocytes / Differential Count, Macrophages: BALF; for Differential Count, PMN - E: eosinophil, control 0.50, OVA 1.67; for Differential Count, PMN - N: neutrophil, control 1.00, OVA 5.33; for Differential Count, Lymphocytes: control 1.83, OVA 12.00; for Differential Count, Macrophages: control 3.33, OVA 25.17; for Cellular Count (total cell count of BALF): control 6.93, OVA 44.17
Procedure: BALB/c mice (20-30 g body weight) were housed under standard laboratory conditions (temperature 23.5° C., humidity=58-64%), with 12 h light and 12 h dark cycle, fed with normal diet and water ad libitum.
(§3) Control animals were administered with 2% Gum acacia in PBS. All the animals except in Group I were actively sensitized by an intraperitoneal (i.p.) injection of OVA (20 μg/kg body weight) and Aluminum hydroxide (2 mg/kg body weight) in PBS on 0 and 14th day and were challenged with 1% OVA in PBS on 21st, 22nd, and 23rd using Nebulizer for 1 hour. The treatment drugs and standard drug were administered orally for 5 days (18th to 23rd day).
On day 25, 48 h after final OVA challenge (saline challenge for normal control group), the animals were anesthetized for collection of blood and Bronchoalveolar Lavage (BAL) fluid for biochemical evaluation.
On the day of sacrifice mice were anesthetized, the lungs were gently lavaged three times via the tracheal tube with a volume of 0.7 ml phosphate buffered saline (PBS). BALF was immediately centrifuged at 1500 rpm for 5 min, and the collected supernatant was stored at −70° C. until further analysis. The cell pellet was analysed to determine the total cell count of BALF (Table 9, FIG. 14) and the count of Macrophages, neutrophil, eosinophil, and lymphocyte (Table 10, FIG. 15) counts using a hematology analyzer in BALF fluids.

[5] = tested on: Cisplatin induced peripheral neuropathy animal models; assay: Hot plate test, cisplatin induced peripheral neuropathy; type: in vivo, C57BL/6 mice; details: reaction latency, 52° C.; BCP 10 mg, PEA 5 mg, BPE 10 mg, BPB 15 mg, Ibuprofen 30 mg
Procedure: Animals are placed on the hot plate one at a time. Latency to respond to the heat stimulus is measured by the amount of time it takes for the animal to lick one of its paws. Animals were placed on a hot-plate apparatus. In order to measure thermal pain, the temperature of the hot plate surface was set to 52° C. The reaction latency as well as the time between when the animals were placed and the onset of paw-licking or jumping behaviors were measured in seconds(s). To minimize tissue damage, a cut-off time of 40 s was adopted (Moureq et al. Alleviation of cisplatin-induced neuropathic pain, neuronal apoptosis, and systemic inflammation in mice by rapamycin., Frontiers in Aging Neuroscience., 14, 2022).

[6] = tested on: Ovalbumin Induced Respiratory Allergy; assay: Evaluation of nasal symptoms, ovalbumin induced respiratory allergy; details: BCP 10, PEA 3, BPE 10, BPB 30 mg/kg; for Nasal Redness Score: score 0—normal, 1—faint, 2—medium, 3—dark
Procedure: BALB/c mice (20-30 g body weight) were housed under standard laboratory conditions (temperature 23.5° C., humidity=58-64%), with 12 h light and 12 h dark cycle, fed with normal diet and water ad libitum. […] The number of animals used in each group is 6.
as §3
On day 21, 22 and 23 nasal symptoms were evaluated within a 10-minute period after the OVA challenge. […] Sneezing is characterized by an explosive expiration just after a deep inspiration and nose rubbing is characterized by an external perinasal scratch with either one or both forelimbs of animal. Another parameter that was evaluated was redness of the nose (FIG. 13) was by observing the intensity in redness of nostrils and scoring them as the following: 0—normal, 1—faint, 2—medium, and 3—dark.

COX-2 = COX-2 expression in spinal tissue lysate (Western blotting); type: in vivo, C57BL/6 mice; details: normalized to GAPDH, cisplatin = 1, control 0.7, BCP 10 mg, PEA 5 mg, BPE 10 mg, BPB 15 mg, Ibuprofen 30 mg, oral 21 days
Procedure: (§1) In the current study, TRPV1 and COX-2 expression was assessed in the spinal tissue lysate of the animals, using Western blotting. Briefly, proteins from the spinal tissue were separated in a 10% SDS-PAGE and transferred to PVDF membrane. The TRPV1 and COX-2 expressions were probed using specific monoclonal antibodies (ABclonal, Dusseldorf, Germany). GAPDH was used as housekeeping gene control. The expression of TRPV1 and COX-2 were normalized to that of GAPDH, and fold change was calculated w.r.t cisplatin group.

TRPV1 = TRPV1 expression in spinal tissue lysate (Western blotting); type: in vivo, C57BL/6 mice; details: normalized to GAPDH, cisplatin = 1, control 0.3, BCP 10 mg, PEA 5 mg, BPE 10 mg, BPB 15 mg, Ibuprofen 30 mg, oral 21 days
Procedure: as §1

Interleukin-1β (IL-1β) = assay: IL-1β in spinal fluids, cisplatin induced peripheral neuropathy (ELISA); details: cisplatin mice, oral 21 days, FIG. 6
Procedure: (§4) As an illustrative example to evaluate the effect of the composition on reducing pain, in-vivo experiments were carried out in Cisplatin induced peripheral neuropathy animal models.
(§5) In the present study, these were estimated in the spinal fluids of the animals using ELISA kits as per the manufacturer's instruction (R&D Systems, Minneapolis, Minnesota, USA).

inducible nitric oxide = assay: Inhibition of inducible nitric oxide (Griess reaction); details: macrophages, nitrite in cell supernatant; FIG. 2A-2C
Procedure: as §2
The Nitrite estimation was carried out using the Griess reaction. To the 50 μL of cell supernatant, Griess reagent I (50 μL) and Griess reagent II (50 μL) were added and incubated for 10 min at room temperature and absorbance were read at 540 nm using Microplate reader.

[7] = tested on: tumor necrosis factor-α (TNF-α); assay: TNF-α in spinal fluids, cisplatin induced peripheral neuropathy (ELISA); details: cisplatin mice, oral 21 days, FIG. 5
Procedure: as §4, §5

[8] = day 21, 10-minute period after OVA challenge, OVA 6.00
[9] = day 21, 10-minute period after OVA challenge, OVA 88.67
[10] = day 22, 10-minute period after OVA challenge, OVA 5.50
[11] = day 22, 10-minute period after OVA challenge, OVA 82.17
[12] = day 23, 10-minute period after OVA challenge, OVA 4.00
[13] = day 23, 10-minute period after OVA challenge, OVA 83.17

| SMILES | organ weight (in words) [1] | Organ weight, Spleen [1] | Organ weight, Lungs [1] | inhibition of intracellular calcium levels [2] | inhibition of IL6 induced by LPS (IL-6) | Tail Flick test Mean Diff., Cisplatin vs. treatment (Tukey's multiple comparisons test) [3] | inhibition of histamine release from mast cells (Mouse mast cells P815) | Differential Count, PMN - E [4] | Differential Count, PMN - N [4] | Differential Count, Lymphocytes [4] | Differential Count, Macrophages [4] | Cellular Count (total cell count of BALF) [4] | Hot plate test Mean Diff., Cisplatin vs. treatment (Tukey's multiple comparisons test) [5] | Number of Sneezing [6, 8] | Nose rubbing [6, 9] | Number of Sneezing [6, 10] | Nose rubbing [6, 11] | Nasal Redness Score ([6]; day 22, OVA 2.17) | Number of Sneezing [6, 12] | Nose rubbing [6, 13] | further results |
| --- | --- | --- | --- | --- | --- | --- | --- | --- | --- | --- | --- | --- | --- | --- | --- | --- | --- | --- | --- | --- | --- |
| CCCCCCCCCCCCCCCC(=O)NCCO [PEA, Palmitoylethanolamide] | showed decrease in organ weight | 0.50 | 0.83 | showed inhibition of intracellular calcium levels | dose dependent inhibition of IL6 induced by LPS | −4.167 | lower activity | 1.20 | 1.80 | 2.80 | 5.00 | 10.80 | −5.958 | 2.60 | 66.40 | 2.80 | 58.40 | 1.00 | 3.00 | 66.40 | Nasal Redness Score ([6]; day 23, OVA 1.17): 0.80; Cox 2 expression (fold change w.r.t cisplatin group) (COX-2): 0.3; TRPV1 expression (fold change w.r.t cisplatin group) (TRPV1): 2.8 |
| C=C1CC/C=C(\C)CC[C@@H]2[C@@H]1CC2(C)C [BCP, β-Caryophyllene] | showed decrease in organ weight | 0.51 | 0.76 | showed inhibition of intracellular calcium levels | lower activity | −3.125 | dose dependent inhibition of histamine release from mast cells | 1.50 | 1.50 | 4.17 | 11.00 | 18.17 | −12.13 | 3.33 | 52.83 | 2.67 | 51.33 | 0.67 | 1.50 | 52.83 | inhibition of Interleukin-1β (IL-1β) (Interleukin-1β (IL-1β)): showed inhibition; inhibition of nitric oxide levels (inducible nitric oxide): showed inhibition of nitric oxide levels; inhibition of tumor necrosis factor-α (TNF-α) [7]: showed inhibition; Nasal Redness Score ([6]; day 23, OVA 1.17): 0.17; Cox 2 expression (fold change w.r.t cisplatin group) (COX-2): 0.8; TRPV1 expression (fold change w.r.t cisplatin group) (TRPV1): 0.1 |
